Experimental data as given in ChEMBL document CHEMBL1157744, “Small molecule antagonist of leukocyte function associated antigen-1 (LFA-1): structure-activity relationships leading to the identification of 6-((5S,9R)-9-(4-cyanophenyl)-3-(3,5-dichlorophenyl)-1-methyl-2,4-dioxo-1,3,7-triazaspiro[4.4]nonan-7-yl)nicotinic acid (BMS-688521)” (J Med Chem, 2010).
The source made the active and inactive calls. The rule behind the calls is not given here.

How the values were obtained:
Canis familiaris = organism: Canis familiaris; conditions: dog, in vivo, po, 5 mg/kg
[1] = biological target: Integrin alpha-M (Homo sapiens) (UniProt P11215); conditions: THP-1, 10 uM
in vivo [2] = conditions: rat, iv, 1 mg/kg
in vivo [3] = conditions: mouse, po, 5 mg/kg
in vivo [4] = conditions: dog, plasma, po, 5 mg/kg
in vivo [5] = conditions: mouse, po, 5 mg/kg; remark: listed apart in the source
in vitro [6] = conditions: Purkinje fibers
in vivo [7] = conditions: dog, po, 5 mg/kg
in vivo [8] = conditions: rat, iv, 1 mg/kg; remark: listed apart in the source
in vivo [9] = conditions: dog, iv, 1 mg/kg
in vivo [10] = conditions: rat, po, 5 mg/kg
Mus musculus [11] = organism: Mus musculus; conditions: BALB/c, 3 to 10 mg/kg
in vivo [12] = conditions: dog, po, 5 mg/kg; remark: listed apart in the source
Rattus norvegicus = organism: Rattus norvegicus; conditions: in vivo, po, 5 mg/kg
[13] = biological target: Integrin alpha-4/beta-1 (Homo sapiens) (UniProt P05556+P13612); conditions: Jurkat, 10 uM
in vivo [14] = conditions: rat, iv, 1 mg/kg; remark: listed apart in the source
in vivo [15] = conditions: mouse, iv, 1 mg/kg
in vivo [16] = conditions: dog, iv, 1 mg/kg; remark: listed apart in the source
Mus musculus [17] = organism: Mus musculus; conditions: in vivo, po, 5 mg/kg
in vitro [18] = conditions: human, serum
in vivo [19] = conditions: rat, iv, 1 mg/kg; remark: listed apart in the source
Mus musculus [20] = organism: Mus musculus; conditions: BALB/c, 1 mg/kg
in vivo [21] = conditions: mouse, iv, 1 mg/kg; remark: listed apart in the source
[22] = biological target: T1, Integrin alpha-2/beta-3 (Homo sapiens) (UniProt P05106+P17301); conditions: 30 uM
in vivo [23] = conditions: mouse, plasma, po, 5 mg/kg
in vivo [24] = conditions: dog, iv, 1 mg/kg; remark: listed apart in the source
in vivo [25] = conditions: mouse, iv, 1 mg/kg; remark: listed apart in the source
in vivo [26] = conditions: rat, po, 5 mg/kg; remark: listed apart in the source
hERG (KCNH2) = hERG (KCNH2) (Homo sapiens, UniProt Q12809); assay: in vitro
in vivo [27] = conditions: mouse, iv, 1 mg/kg; remark: listed apart in the source
in vivo [28] = conditions: dog, iv, 1 mg/kg; remark: listed apart in the source
[29] = biological target: T1, Integrin alpha-2/beta-3 (Homo sapiens); conditions: 30 uM; remark: listed apart in the source
in vitro [30] = conditions: human, Caco-2
in vivo [31] = conditions: rat, plasma, po, 5 mg/kg

hERG (KCNH2), sequence (Q12809 whole entry): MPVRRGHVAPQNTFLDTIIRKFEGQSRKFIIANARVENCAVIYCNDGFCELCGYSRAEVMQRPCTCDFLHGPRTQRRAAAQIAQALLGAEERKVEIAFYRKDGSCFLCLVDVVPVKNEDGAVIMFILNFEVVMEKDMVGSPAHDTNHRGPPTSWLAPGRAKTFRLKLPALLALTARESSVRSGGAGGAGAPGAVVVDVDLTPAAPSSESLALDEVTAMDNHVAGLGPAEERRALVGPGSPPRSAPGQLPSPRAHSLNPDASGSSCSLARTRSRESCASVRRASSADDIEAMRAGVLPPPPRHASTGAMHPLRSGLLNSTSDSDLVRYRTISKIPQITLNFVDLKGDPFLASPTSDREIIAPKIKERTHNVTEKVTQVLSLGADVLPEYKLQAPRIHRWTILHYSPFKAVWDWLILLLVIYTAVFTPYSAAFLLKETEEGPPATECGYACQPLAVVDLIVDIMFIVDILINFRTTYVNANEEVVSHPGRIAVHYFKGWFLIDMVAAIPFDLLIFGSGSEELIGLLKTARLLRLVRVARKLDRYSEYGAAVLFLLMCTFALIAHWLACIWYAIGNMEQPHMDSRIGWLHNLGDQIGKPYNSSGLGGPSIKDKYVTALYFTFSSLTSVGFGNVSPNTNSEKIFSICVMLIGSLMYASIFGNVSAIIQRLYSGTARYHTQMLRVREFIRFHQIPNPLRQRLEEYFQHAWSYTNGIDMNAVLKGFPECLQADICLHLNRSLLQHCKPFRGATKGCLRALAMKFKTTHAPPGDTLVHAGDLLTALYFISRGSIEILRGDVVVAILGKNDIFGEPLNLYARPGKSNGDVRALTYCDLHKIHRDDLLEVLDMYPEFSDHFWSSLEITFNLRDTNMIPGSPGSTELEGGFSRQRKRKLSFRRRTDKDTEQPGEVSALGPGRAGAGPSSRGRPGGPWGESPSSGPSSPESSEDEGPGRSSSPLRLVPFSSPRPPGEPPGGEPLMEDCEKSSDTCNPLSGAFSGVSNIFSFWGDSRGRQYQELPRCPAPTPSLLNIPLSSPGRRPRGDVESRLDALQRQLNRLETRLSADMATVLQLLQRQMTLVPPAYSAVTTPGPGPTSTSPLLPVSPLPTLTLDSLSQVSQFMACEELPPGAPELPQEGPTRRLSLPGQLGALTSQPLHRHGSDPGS

Compound: CN1C(=O)N(c2cc(Cl)cc(Cl)c2)C(=O)[C@]12CN(c1ccc(C(=O)O)cn1)C[C@H]2c1ccc(C#N)cc1
- Tmax (Canis familiaris): 2.9 h
- inhibition [1]: 18%
- half-life (in vivo [2]): 3.3 h
- bioavailability (in vivo [3]): 50%
- AUC (in vivo [4]): 102 µM·h
- Cmax (in vivo [5]): 320 nM
- inhibition at 30 µM (in vitro [6]): < 5%
- bioavailability (in vivo [7]): 48%
- MRT (in vivo [8]): 3.5 h
- MRT (in vivo [9]): 6.9 h
- bioavailability (in vivo [10]): 82%
- inhibition (Mus musculus [11]): Dose-dependent effect
- Cmax (in vivo [12]): 22000 nM
- Tmax (Rattus norvegicus): 1.7 h
- inhibition [13]: 0%
- clearance (in vivo [14]): 11 mL/min/kg
- Vd (in vivo [15]): 5.1 L/kg
- half-life (in vivo [16]): 4.7 h
- Tmax (Mus musculus [17]): 1 h
- fraction unbound (in vitro [18]): 0.05
- Vd (in vivo [19]): 2.3 L/kg
- inhibition (Mus musculus [20]): Active
- half-life (in vivo [21]): 1.6 h
- inhibition [22]: 0%
- AUC (in vivo [23]): 1.5 µM·h
- clearance (in vivo [24]): 0.5 mL/min/kg
- clearance (in vivo [25]): 50 mL/min/kg
- Cmax (in vivo [26]): 2300 nM
- inhibition at 30 µM (hERG (KCNH2)): 20%
- MRT (in vivo [27]): 1.7 h
- Vd (in vivo [28]): 0.2 L/kg
- inhibition [29]: 0%
- Papp A→B (in vitro [30]): 14.8 ×10⁻⁶ cm/s
- AUC (in vivo [31]): 13 µM·h
